For test [1], the target named is GDP-bound NRAS wild-type protein (Homo sapiens, UniProt P01111). Nature of the test: Binding to NRAS by surface plasmon resonance (SPR), Single Cycle Kinetics. As to conditions: for NRAS/KRAS (ratio of KD value for NRAS to KD value for KRAS): GDP-bound NRAS wild-type vs GDP-bound KRAS wild-type. A general note: Surface plasmon resonance follows binding to a sensor surface in real time, without labels.

Test [2] deals with GDP-bound HRAS wild-type protein (Homo sapiens, UniProt P01112). Briefly: Binding to HRAS by surface plasmon resonance (SPR), Single Cycle Kinetics. Conditions: for HRAS/KRAS (ratio of KD value for HRAS to KD value for KRAS): GDP-bound HRAS wild-type vs GDP-bound KRAS wild-type.
GDP-bound HRAS wild-type protein, sequence (P01112 whole entry): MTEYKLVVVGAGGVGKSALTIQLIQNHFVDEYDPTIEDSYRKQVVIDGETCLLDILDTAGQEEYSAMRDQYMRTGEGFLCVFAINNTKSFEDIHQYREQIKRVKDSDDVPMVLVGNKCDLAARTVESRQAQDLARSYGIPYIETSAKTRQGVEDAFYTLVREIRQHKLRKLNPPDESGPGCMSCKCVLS

Where a SMILES comes first, the peptide text is derived from it. Bridges are numbered along the chain shown (N, C = ends). [ ]: non-standard residue; d: D form. The star is where a group is joined. hPhe(3,5-F2-4-CF3) = N[C@@H](CCc1cc(F)c(C(F)(F)F)c(F)c1)C(=O)O; hPhe(3-Cl-4-CF3) = N[C@@H](CCc1ccc(C(F)(F)F)c(Cl)c1)C(=O)O; NPrPhe(4-CF3) = CCCN[C@@H](Cc1ccc(C(F)(F)F)cc1)C(=O)O; NMeGly(cPent) = CN[C@H](C(=O)O)C1CCCC1; αMeI = CC[C@H](C)[C@](C)(N)C(=O)O; NMeD = CN[C@@H](CC(=O)O)C(=O)O; NMeL = CN[C@@H](CC(C)C)C(=O)O; NMeAbu = CC[C@H](NC)C(=O)O; Morpholide = C1CN(*)CCO1; Ac5c = NC1(C(=O)O)CCCC1; Sar = CNCC(=O)O

Here are results for seven molecules from patent publication US20250230193A1, “CYCLIC COMPOUND HAVING SELECTIVE KRAS INHIBITORY EFFECT ON HRAS AND NRAS” (CHUGAI SEIYAKU KABUSHIKI KAISHA, priority 2022, published 2025).

GDP-bound NRAS wild-type protein, sequence (P01111 whole entry): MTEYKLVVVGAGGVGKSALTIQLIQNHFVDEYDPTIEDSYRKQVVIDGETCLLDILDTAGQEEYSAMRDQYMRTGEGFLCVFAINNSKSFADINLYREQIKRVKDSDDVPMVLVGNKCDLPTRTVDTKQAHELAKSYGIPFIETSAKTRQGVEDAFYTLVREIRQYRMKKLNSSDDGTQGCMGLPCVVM

With `CCC[C@H]1C(=O)N[C@@H]([C@@H](C)CC)C(=O)N(C)CC(=O)N(C)[C@H]2C/C=C\CCN(C2=O)[C@@H](Cc2ccc(C(F)(F)F)cc2)C(=O)N(C)CC(=O)N[C@@H](CCc2cc(F)c(C(F)(F)F)c(F)c2)C(=O)N2C[C@H](OCC)C[C@H]2C(=O)NC2(CCC2)C(=O)N(C)[C@@H](C2CCCC2)C(=O)N(C)[C@H](C(=O)N(C)CC)CC(=O)N1C` [PP1304], the “NRAS/KRAS (ratio of KD value for GDP-bound NRAS wild-type protein to KD value for KRAS)” value in test [1] (SPR, KD ratio class) was “A (a compound having 10 or more and less than 20 is denoted as A)”. The “HRAS/KRAS (ratio of KD value for GDP-bound HRAS wild-type protein to KD value for KRAS)” value in test [2] (SPR, KD ratio class) was “A (a compound having 10 or more and less than 20 is denoted as A)”.

Consider `CC[C@H](C)[C@@H]1NC(=O)[C@H](CC2CC2)N(C)C(=O)C[C@@H](C(=O)N(C)C)N(C)C(=O)[C@H](C2CCCC2)N(C)C(=O)C2(CC(C)(C)C2)NC(=O)[C@@H]2C[C@H](C)CN2C(=O)[C@H](CCc2ccc(C(F)(F)F)c(OC)c2)NC(=O)CN(C)C(=O)[C@H](Cc2ccc(C)cc2)N2CC/C=C\C[C@@H](C2=O)N(C)C(=O)CN(C)C1=O` [PP1898], for which the “NRAS/KRAS (ratio of KD value for NRAS to KD value for KRAS)” value in test [1] (SPR) is “B (a compound having 3 or more and less than 10 is denoted as B)”. Also, the “HRAS/KRAS (ratio of KD value for HRAS to KD value for KRAS)” value in test [2] (SPR) is “B (a compound having 3 or more and less than 10 is denoted as B)”.

For the molecule `CCO[C@@H]1C[C@H]2C(=O)N(C)C3(CCCC3)C(=O)N(C)[C@@H](C3CCCC3)C(=O)N(C)[C@H](C(=O)N(C)C)CC(=O)N(C)[C@@H](CC)C(=O)N[C@@H]([C@@H](C)CC)C(=O)N(C)CC(=O)N(C)[C@H]3C/C=C\CCN(C3=O)[C@@H](Cc3ccc(C(F)(F)F)cc3)C(=O)N(C)CC(=O)N[C@@H](CCc3cc(F)c(C(F)(F)F)c(F)c3)C(=O)N2C1` [PP1804], in test [1] (SPR), the “NRAS/KRAS (ratio of KD value for NRAS to KD value for KRAS)” value was “A (a compound having 10 or more and less than 20 is denoted as A)”. Also, the “HRAS/KRAS (ratio of KD value for HRAS to KD value for KRAS)” value in test [2] (SPR) was “A (a compound having 10 or more and less than 20 is denoted as A)”.

With `CCCN1C(=O)CN(C)C(=O)CN(C)C(=O)[C@H]([C@@H](C)CC)NC(=O)[C@H](CC(C)C)N(C)C(=O)C[C@@H](C(=O)N2CCOCC2)N(C)C(=O)[C@H](C2CCCC2)N(C)C(=O)[C@](C)([C@@H](C)CC)NC(=O)[C@@H]2CCCN2C(=O)[C@H](CCc2cc(F)c(C(F)(F)F)c(F)c2)NC(=O)CN(C)C(=O)[C@@H]1Cc1ccc(C(F)(F)F)cc1` [PP0757] ([NMeL]I[Sar][Sar][NPrPhe(4-CF3)][Sar][hPhe(3,5-F2-4-CF3)]P[αMeI][NMeGly(cPent)][NMeD]-Morpholide; lactam N-11), the “NRAS/KRAS (ratio of KD value with respect to GDP-bound NRAS wild-type protein to KD value with respect to KRAS)” value in test [1] (KD ratio NRAS/KRAS, SPR) is “B (a compound having 3 or more and less than 10 is denoted as B)”. Further, the “HRAS/KRAS (ratio of KD value with respect to GDP-bound HRAS wild-type protein to KD value with respect to KRAS)” value in test [2] (KD ratio HRAS/KRAS, SPR) is “C (A compound having a KD ratio of 0.1 or more and less than 3 is denoted as C)”.

For `CCCN1C(=O)CN(C)C(=O)CN(C)C(=O)[C@H]([C@@H](C)CC)NC(=O)[C@H](CC)N(C)C(=O)C[C@@H](C(=O)N2CCOCC2)N(C)C(=O)[C@H](C2CCCC2)N(C)C(=O)C2(CCCC2)NC(=O)[C@@H]2CCCN2C(=O)[C@H](CCc2ccc(C(F)(F)F)c(Cl)c2)NC(=O)CN(C)C(=O)[C@@H]1Cc1ccc(C(F)(F)F)cc1` [PP0190] ([NMeAbu]I[Sar][Sar][NPrPhe(4-CF3)][Sar][hPhe(3-Cl-4-CF3)]P[Ac5c][NMeGly(cPent)][NMeD]-Morpholide; lactam N-11), in test [1] (KD ratio NRAS/KRAS, SPR), the “NRAS/KRAS (ratio of KD for GDP-bound NRAS wild-type to KD for KRAS)” value is “B (a compound having 3 or more and less than 10 is denoted as B)”. Besides, in test [2] (KD ratio HRAS/KRAS, SPR), the “HRAS/KRAS (ratio of KD for GDP-bound HRAS wild-type to KD for KRAS)” value was “B (a compound having 3 or more and less than 10 is denoted as B)”.

Take `CCC[C@H]1C(=O)N[C@@H]([C@@H](C)CC)C(=O)N(C)CC(=O)N(C)[C@H]2C/C=C\CCN(C2=O)[C@@H](Cc2ccc(C(F)(F)F)cc2)C(=O)N(C)CC(=O)N[C@@H](CCc2ccc3sc(C)c(C)c3c2)C(=O)N2C[C@H](OCC)C[C@H]2C(=O)NC2(CC(C)(C)C2)C(=O)N(C)[C@@H](C(CC)CC)C(=O)N(C)[C@H](C(=O)N(C)C)CC(=O)N1C` [PP2900]: in test [1] (KD ratio NRAS/KRAS, class symbols), the “NRAS/KRAS (ratio of KD value with respect to GDP-bound NRAS wild-type protein to KD value with respect to KRAS)” value was “AA (a compound having 20 or more is denoted as AA)”. The “HRAS/KRAS (ratio of KD value with respect to GDP-bound HRAS wild-type protein to KD value with respect to KRAS)” value in test [2] (KD ratio HRAS/KRAS, class symbols) was “A (a compound having 10 or more and less than 20 is denoted as A)”.

For `CC[C@H](C)[C@@H]1NC(=O)[C@H](CC(C)C)N(C)C(=O)C[C@@H](C(=O)N2CCOCC2)N(C)C(=O)[C@H](C2CCCC2)N(C)C(=O)C2(CCCC2)NC(=O)[C@@H]2CCCN2C(=O)[C@H](CCc2ccc(C(F)(F)F)c(Cl)c2)NC(=O)CN(C)C(=O)[C@H](Cc2ccc(OC(F)(F)F)cc2)N2CCCC[C@@H](C2=O)N(C)C(=O)CN(C)C1=O` [PP0536], the “NRAS/KRAS (ratio of KD value with respect to GDP-bound NRAS wild-type protein to KD value with respect to KRAS)” value in test [1] (KD ratio NRAS/KRAS, SPR) is “B (a compound having 3 or more and less than 10 is denoted as B)”. Moreover, in test [2] (KD ratio HRAS/KRAS, SPR), the “HRAS/KRAS (ratio of KD value with respect to GDP-bound HRAS wild-type protein to KD value with respect to KRAS)” value is “B (a compound having 3 or more and less than 10 is denoted as B)”.
